The source of these data is article PMC10221314 (Pharmaceuticals, 2023).

Usually IC50 stands for the concentration that gives 50% inhibition. Read a high IC50 as weaker potency.

Values joined by “and” are separate entries in the source; they are usually repeats but may differ in a detail not shown here. Equal entries are not always repeated.

This experiment has as its target T1, FXR (Homo sapiens, UniProt Q96RI1).
T1 construct: a fusion plasmid of Gal4 DBD-NR-LBD, which included PPARα, PPARβ, PPARγ, RXRα, RXRβ, RXRγ, LXRα, LXRβ, GPBAR, PXR, and FXR; expressed in transfected cells; host or cells: HEK-293T
T1 sequence (Q96RI1 262-486 limits assumed): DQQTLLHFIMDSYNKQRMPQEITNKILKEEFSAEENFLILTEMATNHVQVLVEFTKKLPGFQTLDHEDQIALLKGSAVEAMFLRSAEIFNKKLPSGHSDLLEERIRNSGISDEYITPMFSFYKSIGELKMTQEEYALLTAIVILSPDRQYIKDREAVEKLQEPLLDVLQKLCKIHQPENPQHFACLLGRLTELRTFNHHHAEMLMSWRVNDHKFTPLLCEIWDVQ
Kind of experiment: Yeast one-hybrid assay of FXR antagonistic activity in HEK-293T cells. The settings on record: HEK-293T cells; CDCA (50 μM) as agonist; mean ± SE of three independent tests. Format: cell-based. As for the experimental part:
Cell counting: HEK-293T cells in logarithmic growth phase were digested with 0.25% trypsin, collected, and centrifuged. The trypsin-containing medium was discarded, and 2 mL of fresh phenol red-free DMEM medium containing 5% fetal bovine serum was added. The cells were then mixed with the medium to prepare a cell suspension and counted on a cell counting plate.
Cell plating: A determined number of cells were taken from the cell suspension, diluted with phenol red-free DMEM medium containing 5% fetal bovine serum, and plated at a concentration of 10,000 cells per well (100 µL medium) in a 96-well plate. The plate was then incubated at 37 °C and 5% CO2 for 24 h.
Cell transfection: Fresh phenol red-free DMEM medium was taken in a sterile environment, and the previously extracted pFXR-Binding plasmid and PG4.35[luc2P-9XGA4UAS-Hygro] plasmid were added. The mixture was stirred and allowed to stand at 23 °C for 3 min. Then, a 3% amount of transfection reagent was added to the mixture, and it was allowed to stand at 23 °C for 15 min. The mixture was then added to the 96-well plate at a volume of 10 µL per well and incubated at 37 °C in a 5% CO2 environment for 24 h.
The OA derivatives were prepared as 10 mM DMSO stock solutions and further diluted in a concentration gradient, with 10 µL added to each well. The final concentrations of the derivatives ranged from 10 µM to 0.03 µM, with 7 concentration gradients using […] dilution. The test was set with 3 duplicated wells.
Antagonism activity test: The firefly-Renilla Dual Fluorescence Assay Kit (Promega, #E2940, Madison, WI, USA) was used to measure the antagonism activity of the OA derivatives. Firstly, the firefly fluorescence reagent was added to the 96-well plate at a volume of 70 µL per well and shaken in darkness for 15 min. Then, the fluorescence intensity was measured at a wavelength of 645 ± 30 nm in a microplate reader (BioTek, Winooski, VT, USA). Next, the volume of Renilla reagent was added to the 96-well plate at a volume of 70 µL per well and shaken in darkness for 15 min. The fluorescence intensity was then measured at a wavelength of 525 ± 20 nm.
Data processing: The fluorescence data of firefly were divided by the fluorescence data of Renilla to remove errors, and the antagonism efficiency was calculated using the following formula: antagonism efficiency (%) = [1 − (FCompds. − FDMSO)/(FCDCA − FDMSO)] × 100%. In the formula, F represents fluorescence intensity. The antagonistic efficiency data were obtained as a concentration–effect curve using Graphpad Prism 8.0 software, and the corresponding IC50 value was calculated.
`CC1(C)CC[C@]2(C(=O)O)CC[C@]3(C)[C@H]([C@H](OC(=O)C[C@H](NC(=O)OC(C)(C)C)C(=O)OC(C)(C)C)CC4[C@@]5(C)CC[C@H](O)C(C)(C)C5CC[C@]43C)[C@@H]2C1` (stereo partly drawn) [Compound 9a, 3-hydroxy-12β-(3′-((tert-butoxycarbonyl)amino)-4′-(tert-butoxy)-L-aspartate)oxy-13H-olean-28-oic acid]: the half-inhibitory concentration (IC50) is 950 ± 140 nM. The compound `CC1(C)CC[C@]2(C(=O)O)CC[C@]3(C)[C@H]([C@H](OC(=O)C[C@@H](NC(=O)OC(C)(C)C)C(=O)OC(C)(C)C)CC4[C@@]5(C)CC[C@H](O)C(C)(C)C5CC[C@]43C)[C@@H]2C1` (stereo partly drawn) [Compound 9b, 3-hydroxy-12β-(3′-((tert-butoxycarbonyl)amino)-4′-(tert-butoxy)-D-aspartate)oxy-13H-olean-28-oic acid] registered an IC50 of 2390 ± 350 nM.

For `CC1(C)CC[C@]2(C(=O)O)CC[C@]3(C)[C@H]([C@H](OC(=O)CC[C@@H](NC(=O)OC(C)(C)C)C(=O)OC(C)(C)C)CC4[C@@]5(C)CC[C@H](O)C(C)(C)C5CC[C@]43C)[C@@H]2C1` (stereo partly drawn) [Compound 10a, 3-hydroxy-12β-(4′-((tert-butoxycarbonyl)amino)-5′-(tert-butoxy)-D-glutamate)oxy-13H-olean-28-oic acid], the IC50 amounted to 1950 ± 270 nM.

For the compound `CC1(C)CC[C@]2(C(=O)O)CC[C@]3(C)[C@H]([C@H](OC(=O)C[C@@H](CC(=O)OC(C)(C)C)NC(=O)OC(C)(C)C)CC4[C@@]5(C)CC[C@H](O)C(C)(C)C5CC[C@]43C)[C@@H]2C1` (stereo partly drawn) [Compound 10c, 3-hydroxy-12β-((S)-3′-((tert-butoxycarbonyl)amino)-5′-(tert-butoxy)-5-oxopentanoyl)oxy-13H-olean-28-oic acid], the IC50 was determined as 1340 ± 230 nM. This IC50 and that of the compound before are within 1.5-fold of each other. Turning to `CC1(C)CC[C@]2(C(=O)O)CC[C@]3(C)[C@H]([C@H](OC(=O)[C@@H](CCC(=O)OC(C)(C)C)NC(=O)OC(C)(C)C)CC4[C@@]5(C)CC[C@H](O)C(C)(C)C5CC[C@]43C)[C@@H]2C1` (stereo partly drawn) [Compound 10d, 3-hydroxy-12β-(2′-((tert-butoxycarbonyl)amino)-5′-(tert-butoxy)-D-glutamate)oxy-13H-olean-28-oic acid], the IC50 was 3670 ± 390 nM. In turn, `CC1(C)CC[C@]2(C(=O)O)CC[C@]3(C)[C@H]([C@H](OC(=O)CC[C@H](N)C(=O)OC(C)(C)C)CC4[C@@]5(C)CC[C@H](O)C(C)(C)C5CC[C@]43C)[C@@H]2C1` (stereo partly drawn) [Compound 11a, 3-hydroxy-12β-((S)-4′-amino-5′-(tert-butoxy)-5-oxopentanoyl)oxy-13H-olean-28-oic acid] registered an IC50 of 2950 ± 680 nM. Compound `CC1(C)CC[C@]2(C(=O)O)CC[C@]3(C)[C@H]([C@H](OC(=O)CC[C@H](NC(=O)OC(C)(C)C)C(=O)O)CC4[C@@]5(C)CC[C@H](O)C(C)(C)C5CC[C@]43C)[C@@H]2C1` (stereo partly drawn) [Compound 11b, 3-hydroxy-12β-((S)-4′-((tert-butoxycarbonyl)amino)-4′-carboxybutanoyl)oxy-13H-olean-28-oic acid] displayed a 50% inhibitory concentration (IC50) of 7650 ± 350 nM. In the case of `CC1(C)CC[C@]2(C(=O)O)CC[C@]3(C)[C@H]([C@H](OC(=O)CC[C@H](N)C(=O)O)CC4[C@@]5(C)CC[C@H](O)C(C)(C)C5CC[C@]43C)[C@@H]2C1` (stereo partly drawn) [Compound 11c, 3-hydroxy-12β-((S)-4′-amino-4′-carboxybutanoyl)oxy-13H-olean-28-oic acid] it was 21300 ± 2600 nM; in that of `COC(=O)NC(CCC(=O)OC1CC2C3(C)CCC(O)C(C)(C)C3CCC2(C)C2(C)CCC3(C(=O)O)CCC(C)(C)CC3C12)C(=O)OC(C)(C)C` [Compound 19a, 3β-hydroxy-12β-(4′-((methoxycarbonyl)amide)-5′-(tert-butoxy)-L-glutamate)oxy-13H-olean-28-oic acid], 550 ± 220 nM. `CCOC(=O)NC(CCC(=O)OC1CC2C3(C)CCC(O)C(C)(C)C3CCC2(C)C2(C)CCC3(C(=O)O)CCC(C)(C)CC3C12)C(=O)OC(C)(C)C` [Compound 19b, 3β-hydroxy-12β-(4′-((ethoxycarbonyl)amide)-5′-(tert-butoxy)-L-glutamate)oxy-13H-olean-28-oic acid]: the IC50 was determined as 570 ± 360 nM. Take `CCCOC(=O)NC(CCC(=O)OC1CC2C3(C)CCC(O)C(C)(C)C3CCC2(C)C2(C)CCC3(C(=O)O)CCC(C)(C)CC3C12)C(=O)OC(C)(C)C` [Compound 19c, 3β-hydroxy-12β-(4′-((propoxycarbonyl)amide)-5′-(tert-butoxy)-L-glutamate)oxy-13H-olean-28-oic acid]: the IC50 is 400 to 500 nM and 450 nM. Then `CC(C)OC(=O)NC(CCC(=O)OC1CC2C3(C)CCC(O)C(C)(C)C3CCC2(C)C2(C)CCC3(C(=O)O)CCC(C)(C)CC3C12)C(=O)OC(C)(C)C` [Compound 19d, 3β-hydroxy-12β-(4′-((isopropoxycarbonyl)amide)-5′-(tert-butoxy)-L-glutamate)oxy-13H-olean-28-oic acid], with 400 to 500 nM and 470 nM; and `CC(C)COC(=O)NC(CCC(=O)OC1CC2C3(C)CCC(O)C(C)(C)C3CCC2(C)C2(C)CCC3(C(=O)O)CCC(C)(C)CC3C12)C(=O)OC(C)(C)C` [Compound 19e, 3β-hydroxy-12β-(4′-((isobutoxycarbonyl)amide)-5′-(tert-butoxy)-L-glutamate)oxy-13H-olean-28-oic acid], with 920 ± 140 nM; and `CCC(C)OC(=O)NC(CCC(=O)OC1CC2C3(C)CCC(O)C(C)(C)C3CCC2(C)C2(C)CCC3(C(=O)O)CCC(C)(C)CC3C12)C(=O)OC(C)(C)C` [Compound 19f, 3β-hydroxy-12β-(4′-((sec-butoxycarbonyl)amide)-5′-(tert-butoxy)-L-glutamate)oxy-13H-olean-28-oic acid], with 600 ± 40 nM. The compound `CC1(C)CCC2(C(=O)O)CCC3(C)C(C(OC(=O)CCC(NC(=O)OC4CCCC4)C(=O)OC(C)(C)C)CC4C5(C)CCC(O)C(C)(C)C5CCC43C)C2C1` [Compound 19g, 3β-hydroxy-12β-(4′-(((cyclopentyloxy)carbonyl)amide)-5′-(tert-butoxy)-L-glutamate)oxy-13H-olean-28-oic acid] displayed an IC50 of 720 ± 180 nM. As to `CC1(C)CCC2(C(=O)O)CCC3(C)C(C(OC(=O)CCC(NC(=O)Oc4ccccc4)C(=O)OC(C)(C)C)CC4C5(C)CCC(O)C(C)(C)C5CCC43C)C2C1` [Compound 19h, 3β-hydroxy-12β-(4′-((phenoxycarbonyl)amide)-5′-(tert-butoxy)-L-glutamate)oxy-13H-olean-28-oic acid], the IC50 was 2220 nM and 2180 nM. For `COC(=O)C(CCC(=O)OC1CC2C3(C)CCC(O)C(C)(C)C3CCC2(C)C2(C)CCC3(C(=O)O)CCC(C)(C)CC3C12)NC(=O)OC(C)(C)C` [Compound 20a, 3β-hydroxy-12β-(4′-((tert-butoxycarbonyl)amide)-5′-methoxy-L-glutamate)oxy-13H-olean-28-oic acid], the half-maximal inhibitory concentration (IC50) was found to be 1100 ± 190 nM. The compound `CCOC(=O)C(CCC(=O)OC1CC2C3(C)CCC(O)C(C)(C)C3CCC2(C)C2(C)CCC3(C(=O)O)CCC(C)(C)CC3C12)NC(=O)OC(C)(C)C` [Compound 20b, 3β-hydroxy-12β-(4′-((tert-butoxycarbonyl)amide)-5′-ethoxy-L-glutamate)oxy-13H-olean-28-oic acid] displayed an IC50 of 1020 ± 210 nM. With `CCCOC(=O)C(CCC(=O)OC1CC2C3(C)CCC(O)C(C)(C)C3CCC2(C)C2(C)CCC3(C(=O)O)CCC(C)(C)CC3C12)NC(=O)OC(C)(C)C` [Compound 20c, 3β-hydroxy-12β-(4′-((tert-butoxycarbonyl)amide)-5′-propoxy-L-glutamate)oxy-13H-olean-28-oic acid], the IC50 was 560 ± 130 nM. Against the preceding compound, the IC50 is about 1.8-fold lower. `CC(C)OC(=O)C(CCC(=O)OC1CC2C3(C)CCC(O)C(C)(C)C3CCC2(C)C2(C)CCC3(C(=O)O)CCC(C)(C)CC3C12)NC(=O)OC(C)(C)C` [Compound 20d, 3β-hydroxy-12β-(4′-((tert-butoxycarbonyl)amide)-5′-isopropoxy-L-glutamate)oxy-13H-olean-28-oic acid] returned an IC50 of 550 ± 90 nM. In the case of `CC(C)COC(=O)C(CCC(=O)OC1CC2C3(C)CCC(O)C(C)(C)C3CCC2(C)C2(C)CCC3(C(=O)O)CCC(C)(C)CC3C12)NC(=O)OC(C)(C)C` [Compound 20e, 3β-hydroxy-12β-(4′-((tert-butoxycarbonyl)amide)-5′-isobutoxy-L-glutamate)oxy-13H-olean-28-oic acid] it was 1000 ± 170 nM.
